# According to PMC8550792, “Evolution of kinase polypharmacology across HSP90 drug discovery” (Cell Chemical Biology, 2021):
# Where “and” joins values, the source holds several entries; their conditions need not be identical. Identical values can stand only once. Like-named read-outs stand apart in the source and are kept apart here.
# Legend:
# HSP90AB1 = system: HSP90AB1; design: method as in ChEMBL23 (accessed: 23/08/2018); settings: average of reported values; ref ChEMBL23 (accessed: 23/08/2018); cited from earlier work
# TRAP1 = system: TRAP1; design: method as in ChEMBL23 (accessed: 23/08/2018); settings: average of reported values; ref ChEMBL23 (accessed: 23/08/2018); cited from earlier work
# YES/YES1 = target: T1, YES/YES1 (Homo sapiens, UniProt P07947); assay: HotSpot in vitro kinase radiometric assay; assay type: biochemical; settings: read-out: % inhibition at 10 uM: YES; 10 μM; Fig 6C median ± standard deviation (n = 2)
# T1 construct: purchased Reaction Biology (HotSpot contract assay)
# PASK = target: T2, PASK (Homo sapiens, UniProt Q96RG2); assay: HotSpot in vitro kinase radiometric assay; assay type: biochemical; settings: read-out: % inhibition at 10 uM: PASK; 10 μM; Fig 6C median ± standard deviation (n = 2)
# T2 construct: purchased Reaction Biology (HotSpot contract assay)
# Method in brief: (§1)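 Compounds were incubated with kinase, substrate, cofactors and radiolabelled ATP (32P-ɣ-ATP or 33P-ɣ-ATP), then reaction mixtures were spotted onto filter paper that binds the labelled product. Catalytic inhibition was measured directly, without modified substrates, coupling enzymes or antibodies.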
# TRKA = target: T3, TRKA (Homo sapiens, UniProt P04629); assay: HotSpot in vitro kinase radiometric assay; assay type: biochemical; settings: read-out: % inhibition at 10 uM: TRKA; 10 μM; Fig 6C median ± standard deviation (n = 2)
# T3 construct: purchased Reaction Biology (HotSpot contract assay)
# Method in brief: as §1
# ABL1 = ABL1 (Homo sapiens, UniProt P00519); assay: HotSpot in vitro kinase radiometric assay; assay type: biochemical; design: purchased Reaction Biology (HotSpot contract assay)
# HSP90AA1 = settings: average of reported values; ref ChEMBL23 (accessed: 23/08/2018); cited from earlier work
# ABL2/ARG = target: T4, ABL2/ARG (Homo sapiens, UniProt P42684); assay: HotSpot in vitro kinase radiometric assay; assay type: biochemical
# T4 construct: purchased Reaction Biology (HotSpot contract assay)
# 382 unique human kinases [1] = assay: biochemical; assay type: biochemical
# 382 unique human kinases [2] = target: T5, 382 unique human kinases (Homo sapiens, UniProt P11802); assay: biochemical; assay type: biochemical; settings: CDK4/cyclin D3, [ATP] 5 µM, compound 10 uM
# T5 construct: purchased Reaction Biology (HotSpot contract assay)
# 382 unique human kinases [3] = target: T6, 382 unique human kinases (Homo sapiens, UniProt Q00534); assay: biochemical; assay type: biochemical; settings: CDK6/cyclin D3, 10 uM
# T6 construct: purchased Reaction Biology (HotSpot contract assay)
# 382 unique human kinases [4] = target: T7, 382 unique human kinases (Homo sapiens, UniProt P24941); assay: biochemical; assay type: biochemical; settings: 10 uM; for remaining activity at 10 µM: read-out: % Enzyme Activity (relative to DMSO controls)
# T7 construct: purchased Reaction Biology (HotSpot contract assay)
# 382 unique human kinases [5] = target: T8, 382 unique human kinases (Homo sapiens, UniProt P50750); assay: biochemical; assay type: biochemical; settings: CDK9/cyclin T1, 10 uM
# T8 construct: purchased Reaction Biology (HotSpot contract assay)
# FYN = target: T9, FYN (Homo sapiens, UniProt P06241); assay: HotSpot in vitro kinase radiometric assay; assay type: biochemical; settings: read-out: % inhibition at 10 uM: FYN; 10 μM; Fig 6C median ± standard deviation (n = 2)
# T9 construct: purchased Reaction Biology (HotSpot contract assay)
# TRKC = target: T10, TRKC (Homo sapiens, UniProt Q16288); assay: HotSpot in vitro kinase radiometric assay; assay type: biochemical; settings: read-out: % inhibition at 10 uM: TRKC; 10 μM; Fig 6C median ± standard deviation (n = 2)
# T10 construct: purchased Reaction Biology (HotSpot contract assay)
# PDK4/PDKH4 = target: T11, PDK4/PDKH4 (Homo sapiens, UniProt Q16654); assay: HotSpot in vitro kinase radiometric assay; assay type: biochemical; settings: read-out: % inhibition at 10 uM: PDK4; 10 μM; Fig 6C median ± standard deviation (n = 2)
# T11 construct: purchased Reaction Biology (HotSpot contract assay)
# Method in brief: as §1
# PDK2/PDHK2 = target: T12, PDK2/PDHK2 (Homo sapiens, UniProt Q15119); assay: HotSpot in vitro kinase radiometric assay; assay type: biochemical; settings: read-out: % inhibition at 10 uM: PDK2; 10 μM; Fig 6C median ± standard deviation (n = 2)
# T12 construct: purchased Reaction Biology (HotSpot contract assay)
# Method in brief: as §1
# c-Src = target: T13, c-Src (Homo sapiens, UniProt P12931); assay: HotSpot in vitro kinase radiometric assay; assay type: biochemical; settings: read-out: % inhibition at 10 uM: SRC; 10 μM; Fig 6C median ± standard deviation (n = 2)
# T13 construct: purchased Reaction Biology (HotSpot contract assay)
# Method in brief: as §1
# BLK = target: T14, BLK (Homo sapiens, UniProt P51451); assay: HotSpot in vitro kinase radiometric assay; assay type: biochemical; settings: read-out: % inhibition at 10 uM: BLK; 10 μM; Fig 6C median ± standard deviation (n = 2)
# T14 construct: purchased Reaction Biology (HotSpot contract assay)
# Method in brief: as §1
# LYN B = target: T15, LYN B (Homo sapiens, UniProt P07948); assay: HotSpot in vitro kinase radiometric assay; assay type: biochemical; settings: read-out: % inhibition at 10 uM: LYN B; 10 μM; Fig 6C median ± standard deviation (n = 2)
# T15 construct: purchased Reaction Biology (HotSpot contract assay)
# Method in brief: as §1
# DDR1 = DDR1 (Homo sapiens, UniProt Q08345); assay: HotSpot in vitro kinase radiometric assay; assay type: biochemical; design: purchased Reaction Biology (HotSpot contract assay)
# [6] = 10 μM, Fig 6C median ± standard deviation (n = 2)
# [7] = read-out: % Enzyme Activity (relative to DMSO controls)
# Sequence of ABL1 (P00519 whole entry): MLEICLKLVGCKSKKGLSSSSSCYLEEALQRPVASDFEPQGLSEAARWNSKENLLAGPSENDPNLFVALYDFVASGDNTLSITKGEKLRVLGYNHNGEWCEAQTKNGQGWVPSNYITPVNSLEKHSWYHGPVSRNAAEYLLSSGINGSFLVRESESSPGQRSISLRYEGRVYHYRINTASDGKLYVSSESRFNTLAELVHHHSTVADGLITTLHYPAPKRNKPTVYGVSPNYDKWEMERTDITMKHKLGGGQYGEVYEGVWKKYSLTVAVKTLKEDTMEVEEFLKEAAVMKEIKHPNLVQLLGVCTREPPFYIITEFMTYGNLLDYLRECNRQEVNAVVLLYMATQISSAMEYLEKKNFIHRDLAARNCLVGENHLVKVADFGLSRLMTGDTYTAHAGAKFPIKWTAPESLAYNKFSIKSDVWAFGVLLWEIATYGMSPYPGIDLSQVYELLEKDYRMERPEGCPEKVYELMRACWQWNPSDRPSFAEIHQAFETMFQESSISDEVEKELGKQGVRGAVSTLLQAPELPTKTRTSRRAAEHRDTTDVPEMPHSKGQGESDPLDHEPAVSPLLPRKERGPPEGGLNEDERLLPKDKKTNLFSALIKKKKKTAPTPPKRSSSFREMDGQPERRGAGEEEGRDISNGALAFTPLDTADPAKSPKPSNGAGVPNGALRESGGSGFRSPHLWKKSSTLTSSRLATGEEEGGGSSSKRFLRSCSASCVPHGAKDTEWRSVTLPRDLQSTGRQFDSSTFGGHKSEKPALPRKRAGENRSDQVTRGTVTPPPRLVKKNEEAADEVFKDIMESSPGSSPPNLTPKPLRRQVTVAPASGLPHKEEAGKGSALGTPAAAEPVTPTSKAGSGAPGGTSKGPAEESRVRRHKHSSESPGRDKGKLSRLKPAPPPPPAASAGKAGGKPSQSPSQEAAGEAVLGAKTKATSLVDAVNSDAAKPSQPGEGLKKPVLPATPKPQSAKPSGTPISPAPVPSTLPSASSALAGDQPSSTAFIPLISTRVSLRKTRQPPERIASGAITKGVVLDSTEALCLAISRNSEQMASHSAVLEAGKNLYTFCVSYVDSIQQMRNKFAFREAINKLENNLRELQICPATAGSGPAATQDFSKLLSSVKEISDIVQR
# T4 sequence (P42684 whole entry): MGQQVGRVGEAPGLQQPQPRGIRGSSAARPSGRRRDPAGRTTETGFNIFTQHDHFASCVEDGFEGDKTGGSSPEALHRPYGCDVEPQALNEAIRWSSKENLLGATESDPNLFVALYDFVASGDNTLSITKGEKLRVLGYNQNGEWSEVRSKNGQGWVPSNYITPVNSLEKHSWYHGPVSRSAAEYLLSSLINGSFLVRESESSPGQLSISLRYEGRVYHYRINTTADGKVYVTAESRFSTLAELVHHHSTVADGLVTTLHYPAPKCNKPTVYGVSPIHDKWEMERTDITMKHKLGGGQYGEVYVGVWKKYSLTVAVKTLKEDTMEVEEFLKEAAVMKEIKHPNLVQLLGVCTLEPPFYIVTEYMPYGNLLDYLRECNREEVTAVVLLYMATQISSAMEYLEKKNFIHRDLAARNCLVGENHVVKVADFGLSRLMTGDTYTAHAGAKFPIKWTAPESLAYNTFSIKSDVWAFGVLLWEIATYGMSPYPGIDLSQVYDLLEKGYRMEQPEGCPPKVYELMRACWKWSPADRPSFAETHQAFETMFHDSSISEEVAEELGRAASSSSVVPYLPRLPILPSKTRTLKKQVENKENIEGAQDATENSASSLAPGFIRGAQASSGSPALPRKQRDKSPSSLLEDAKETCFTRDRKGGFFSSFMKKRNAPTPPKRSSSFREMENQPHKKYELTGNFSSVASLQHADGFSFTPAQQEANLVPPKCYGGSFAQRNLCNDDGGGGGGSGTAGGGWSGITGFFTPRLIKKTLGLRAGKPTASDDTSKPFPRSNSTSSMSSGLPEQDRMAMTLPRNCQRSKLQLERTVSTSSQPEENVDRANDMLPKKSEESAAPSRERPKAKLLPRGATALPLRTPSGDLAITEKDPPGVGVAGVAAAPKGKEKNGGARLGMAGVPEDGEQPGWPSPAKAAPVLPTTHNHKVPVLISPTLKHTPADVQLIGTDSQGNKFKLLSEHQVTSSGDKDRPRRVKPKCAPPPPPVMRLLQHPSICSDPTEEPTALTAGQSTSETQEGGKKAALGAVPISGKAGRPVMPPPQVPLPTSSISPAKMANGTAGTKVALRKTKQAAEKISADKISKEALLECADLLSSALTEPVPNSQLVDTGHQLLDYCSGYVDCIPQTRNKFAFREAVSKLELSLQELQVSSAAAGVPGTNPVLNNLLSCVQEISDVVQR
# T5 sequence (P11802 whole entry): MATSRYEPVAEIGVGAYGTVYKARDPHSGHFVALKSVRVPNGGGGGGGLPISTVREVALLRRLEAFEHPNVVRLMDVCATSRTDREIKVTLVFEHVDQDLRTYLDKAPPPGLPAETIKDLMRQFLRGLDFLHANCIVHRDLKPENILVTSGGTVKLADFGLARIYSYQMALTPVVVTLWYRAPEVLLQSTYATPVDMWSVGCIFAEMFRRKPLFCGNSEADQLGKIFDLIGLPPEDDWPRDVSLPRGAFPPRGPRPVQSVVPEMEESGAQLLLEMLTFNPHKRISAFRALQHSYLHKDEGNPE
# T6 sequence (Q00534 whole entry): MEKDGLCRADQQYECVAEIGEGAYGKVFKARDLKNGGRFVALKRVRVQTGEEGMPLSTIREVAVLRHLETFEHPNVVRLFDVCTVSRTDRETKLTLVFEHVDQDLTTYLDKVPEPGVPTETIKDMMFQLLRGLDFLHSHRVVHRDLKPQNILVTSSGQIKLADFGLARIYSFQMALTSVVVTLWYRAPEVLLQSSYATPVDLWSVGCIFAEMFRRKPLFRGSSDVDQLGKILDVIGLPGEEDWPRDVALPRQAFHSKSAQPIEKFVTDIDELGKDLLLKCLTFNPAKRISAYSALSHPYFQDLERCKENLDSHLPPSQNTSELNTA
# Sequence of DDR1 (Q08345 19-913): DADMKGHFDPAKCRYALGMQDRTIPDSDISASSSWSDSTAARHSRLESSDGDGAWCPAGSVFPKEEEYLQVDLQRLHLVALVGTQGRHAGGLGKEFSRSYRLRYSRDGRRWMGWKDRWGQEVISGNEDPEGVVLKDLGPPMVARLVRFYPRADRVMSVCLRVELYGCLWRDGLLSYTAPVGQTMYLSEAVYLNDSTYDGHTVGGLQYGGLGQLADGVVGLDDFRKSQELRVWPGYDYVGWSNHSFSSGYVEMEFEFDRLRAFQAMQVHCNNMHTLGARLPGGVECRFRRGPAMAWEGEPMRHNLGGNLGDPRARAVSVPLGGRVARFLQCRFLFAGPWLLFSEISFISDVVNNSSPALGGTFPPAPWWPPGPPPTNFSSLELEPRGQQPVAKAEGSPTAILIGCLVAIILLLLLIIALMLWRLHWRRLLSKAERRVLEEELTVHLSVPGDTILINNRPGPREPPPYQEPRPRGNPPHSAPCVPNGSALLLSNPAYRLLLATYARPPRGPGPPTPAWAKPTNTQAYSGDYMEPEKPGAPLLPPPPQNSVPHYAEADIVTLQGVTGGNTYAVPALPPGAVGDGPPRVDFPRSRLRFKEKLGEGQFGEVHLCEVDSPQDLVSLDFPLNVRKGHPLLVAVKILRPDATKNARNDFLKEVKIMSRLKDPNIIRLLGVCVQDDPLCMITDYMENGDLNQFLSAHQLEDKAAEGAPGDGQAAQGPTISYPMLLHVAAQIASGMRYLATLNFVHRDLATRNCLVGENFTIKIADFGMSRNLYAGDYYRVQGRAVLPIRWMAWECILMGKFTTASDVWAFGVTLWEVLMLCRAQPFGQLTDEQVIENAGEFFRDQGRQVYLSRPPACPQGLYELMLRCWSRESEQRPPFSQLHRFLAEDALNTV
# T8 sequence (P50750 whole entry): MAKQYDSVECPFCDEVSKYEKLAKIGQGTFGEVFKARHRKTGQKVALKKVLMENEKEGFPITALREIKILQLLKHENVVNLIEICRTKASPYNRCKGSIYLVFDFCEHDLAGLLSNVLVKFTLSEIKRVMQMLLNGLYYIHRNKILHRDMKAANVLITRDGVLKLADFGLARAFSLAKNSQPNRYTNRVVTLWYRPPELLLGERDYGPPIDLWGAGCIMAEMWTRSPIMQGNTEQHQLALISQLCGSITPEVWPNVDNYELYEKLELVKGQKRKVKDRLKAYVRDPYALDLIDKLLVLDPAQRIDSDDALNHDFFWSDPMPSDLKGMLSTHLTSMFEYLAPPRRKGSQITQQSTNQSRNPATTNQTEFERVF
# T13 sequence (P12931 whole entry): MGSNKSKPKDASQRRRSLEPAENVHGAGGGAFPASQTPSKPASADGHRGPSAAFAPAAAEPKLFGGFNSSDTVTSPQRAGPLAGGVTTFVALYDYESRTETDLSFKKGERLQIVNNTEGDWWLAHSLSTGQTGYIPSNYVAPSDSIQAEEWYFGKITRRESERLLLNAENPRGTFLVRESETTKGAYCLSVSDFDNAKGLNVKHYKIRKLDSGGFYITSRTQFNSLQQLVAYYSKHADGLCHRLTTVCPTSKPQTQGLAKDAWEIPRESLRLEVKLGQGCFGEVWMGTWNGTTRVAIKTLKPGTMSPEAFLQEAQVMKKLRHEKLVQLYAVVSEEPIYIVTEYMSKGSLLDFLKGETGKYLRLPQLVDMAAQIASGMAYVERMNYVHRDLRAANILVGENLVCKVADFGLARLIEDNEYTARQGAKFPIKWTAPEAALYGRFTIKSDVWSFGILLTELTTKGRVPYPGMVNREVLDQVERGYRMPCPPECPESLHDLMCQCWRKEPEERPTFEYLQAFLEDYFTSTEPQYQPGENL
structure (smiles),measurement,setting,value
CCNC(=O)c1noc(-c2cc(C(C)C)c(O)cc2O)c1-c1ccc(CN2CCOCC2)cc1 [Luminespib],"pActivity, HSP90AB1",HSP90AB1,8.09
same,"pActivity, TRAP1",TRAP1,7.67
same,inhibition at 10 µM,YES/YES1,49 ± 2%
same,inhibition at 10 µM,PASK,1%
same,inhibition at 10 µM,TRKA,-1%
same,% inhibition at 10 uM: ABL1,ABL1; [6],93 ± 1%
same,HILLSLOPE,"ABL1; ABL1, single replicate curves",-3.07 and -2.62 and -3.14
same,IC50,"ABL1; ABL1, single replicate curves, read-out: IC50",3.57 µM and 3.39 µM and 3.22 µM
same,IC50,"ABL1; radiometric 10-point concentration-response, n = 3, read-out: in vitro biochemical IC50, ABL1",3.39 µM
same,inhibition at 10 µM,"ABL1; read-out: % inhibition at 10 uM: ABL1, 10 μM, Fig 6C median ± standard deviation (n = 2)",> 85%
same,"pActivity, HSP90AA1",HSP90AA1,8.01
same,% inhibition at 10 uM: ABL2,ABL2/ARG; [6],92 ± 0%
same,HILLSLOPE,"ABL2/ARG; ABL2, single replicate curves",-2.11 and -2.06 and -1.92
same,IC50,"ABL2/ARG; ABL2, single replicate curves, read-out: IC50",4.57 µM and 4.33 µM and 4.12 µM
same,IC50,"ABL2/ARG; radiometric 10-point concentration-response, n = 3, read-out: in vitro biochemical IC50, ABL2",4.34 µM
same,inhibition at 10 µM,"ABL2/ARG; read-out: % inhibition at 10 uM: ABL2, 10 μM, Fig 6C median ± standard deviation (n = 2)",> 85%
same,number of kinase off-targets inhibited by more than 50% at 10 μM,382 unique human kinases [1]; 10 μM,14
same,number of native kinases inhibited by more than 85% at 10 μM,382 unique human kinases [1]; 10 μM,two
same,% Enzyme Activity (relative to DMSO controls),"382 unique human kinases [1]; ALK (T1151-L1152insT), [ATP] 20 µM, compound 10 uM",108.18% and 107.06%
same,% Enzyme Activity (relative to DMSO controls),"382 unique human kinases [1]; ALK-TPM3, [ATP] 15 µM, compound 10 uM",105.28% and 105.22%
same,% Enzyme Activity (relative to DMSO controls),"382 unique human kinases [1]; BRAF (T599_V600insT), 10 uM",98.93% and 97.05%
same,% Enzyme Activity (relative to DMSO controls),"382 unique human kinases [1]; BRAF-FAM131B (Fex2Bex9), 10 uM",111.02% and 110.19%
same,% Enzyme Activity (relative to DMSO controls),"382 unique human kinases [1]; EGFR (d746-750/C797S), 10 uM",93.95% and 93.48%
same,% Enzyme Activity (relative to DMSO controls),"382 unique human kinases [1]; ERBB2 (V777_G778insCG), 10 uM",103.65% and 102.78%
same,% Enzyme Activity (relative to DMSO controls),"382 unique human kinases [1]; FGFR1OP-FGFR1, [ATP] 10 µM, compound 10 uM",103.05% and 103.02%
same,% Enzyme Activity (relative to DMSO controls),"382 unique human kinases [1]; FLT3 (ITD), [ATP] 30 µM, compound 10 uM",91.11% and 89.12%
same,In vitro screening: kinases hit / kinases screened,382 unique human kinases [1]; Figure 3,2/382
same,% Enzyme Activity (relative to DMSO controls),"382 unique human kinases [1]; KSR1 (A635F), 10 uM",100.08% and 96.91%
same,% Enzyme Activity (relative to DMSO controls),"382 unique human kinases [1]; LYN B, [ATP] 20 µM, compound 10 uM",26.10% and 25.22%
same,% Enzyme Activity (relative to DMSO controls),"382 unique human kinases [1]; PKCb2, 10 uM",102.18% and 101.94%
same,% Enzyme Activity (relative to DMSO controls),"382 unique human kinases [1]; ROS1-GOPC, [ATP] 15 µM, compound 10 uM",101.12% and 99.93%
same,% Enzyme Activity (relative to DMSO controls),"382 unique human kinases [1]; TRKA-TFG (TRK-T3), [ATP] 20 µM, compound 10 uM",85.72% and 85.69%
same,% Enzyme Activity (relative to DMSO controls),"382 unique human kinases [1]; TRKA-TPM3, [ATP] 50 µM, compound 10 uM",90.74% and 88.03%
same,% Enzyme Activity (relative to DMSO controls),"382 unique human kinases [1]; TRKA-TPR, [ATP] 50 µM, compound 10 uM",90.04% and 89.94%
same,% Enzyme Activity (relative to DMSO controls),"382 unique human kinases [1]; c-Kit (d557-558), [ATP] 10 µM, compound 10 uM",63.45% and 62.37%
same,"number of off-target kinases experimentally identified, In vitro binding (KinomeSCAN)","382 unique human kinases [1]; cutoff of >85% inhibition at 10 μM, luminespib and ganetespib large kinome panel, others 16-kinase panel",2
same,% Enzyme Activity (relative to DMSO controls),382 unique human kinases [2],101.56%
same,remaining activity at 10 µM,382 unique human kinases [2]; [7],102%
same,% Enzyme Activity (relative to DMSO controls),382 unique human kinases [3],112.00%
same,remaining activity at 10 µM,382 unique human kinases [3]; [7],113%
same,% Enzyme Activity (relative to DMSO controls),382 unique human kinases [4]; CDK2/Cyclin A1,96.40%
same,remaining activity at 10 µM,382 unique human kinases [4]; CDK2/Cyclin A1,97.4%
same,% Enzyme Activity (relative to DMSO controls),382 unique human kinases [4]; CDK2/cyclin E,98.18%
same,remaining activity at 10 µM,382 unique human kinases [4]; CDK2/cyclin E,101%
same,% Enzyme Activity (relative to DMSO controls),382 unique human kinases [5],103.10%
same,remaining activity at 10 µM,382 unique human kinases [5]; [7],105%
same,inhibition at 10 µM,FYN,35%
same,inhibition at 10 µM,TRKC,4 ± 2%
same,inhibition at 10 µM,PDK4/PDKH4,71 ± 2%
same,inhibition at 10 µM,PDK2/PDHK2,78 ± 1%
same,inhibition at 10 µM,c-Src,65 ± 2%
same,inhibition at 10 µM,BLK,62 ± 1%
same,inhibition at 10 µM,LYN B,74 ± 1%
same,IC50,"DDR1; radiometric 10-point concentration-response, n = 3, read-out: in vitro biochemical IC50, DDR1",> 10 µM
same,inhibition at 10 µM,"DDR1; read-out: % inhibition at 10 uM: DDR1, 10 μM, Fig 6C median ± standard deviation (n = 2)",15 ± 1%
